The text below walks through data of US12227539B2, “Mogroside compounds and uses thereof” (Firmenich SA, priority 2019, dated 2025).

The nature of test [1]: Sensory profile scores (Sweet, Licorice, Lingering) compared with mogroside V.
Test [2] in a line: Tasting of a sample of the purified compound (taste perceived, sweetness relative to sucrose). The note with it: for sweetness relative to sucrose: approximate. An excerpt: The sweetness intensity perceived was weaker than the sweetness intensity perceived with mogroside V. However, the perception of licorice and lingering profile of isomogroside IVe was weaker than that of mogroside V (see table on following page).

The mark [3] stands for this setting: tasted at 250 ppm in a water base.
[4] abbreviates: tasted at a concentration of 250 ppm.

As for `C[C@H](CC[C@@H](O[C@@H]1O[C@H](CO[C@@H]2O[C@H](CO)[C@@H](O)[C@H](O)[C@H]2O)[C@@H](O)[C@H](O)[C@H]1O[C@@H]1O[C@H](CO)[C@@H](O[C@@H]2O[C@H](CO)[C@@H](O)[C@H](O)[C@H]2O)[C@H](O)[C@H]1O)C(C)(C)O)[C@H]1CC[C@@]2(C)[C@@H]3CC=C4[C@@H](CC[C@H](O[C@@H]5O[C@H](CO[C@@H]6O[C@H](CO)[C@@H](O)[C@H](O)[C@H]6O)[C@@H](O)[C@H](O)[C@H]5O)C4(C)C)[C@]3(C)[C@H](O)C[C@]12C` [Compound 12a, (1S,4R,9beta,11alpha,24R)-1-{[6-O-(beta-D-glucopyranosyl)-beta-D-glucopyranosyl]oxy}-11,25-dihydroxy-9,10,14-trimethyl-4,9-cyclo-9,10-secocholest-5-en-24-yl beta-D-glucopyranosyl-(1→6)-[beta-D-glucopyranosyl-(1→4)-beta-D-glucopyranosyl-(1→2)]-beta-D-glucopyranoside], the “sweetness intensity perceived compared with mogroside V” value in test [1] (250 ppm in a water base) is “weaker”. In test [1] (Dosage 250 ppm), this molecule registered a Licorice of 3.1, a Lingering of 3.0 and a Sweet of 3.4. In addition, in test [2] (setting [3]), the “sweetness relative to sucrose” value is reported as 50-100 times sweeter than sucrose. Further, the taste perceived entry in test [2] (setting [4]) is “moderate sweet taste”.

`C[C@H](CC[C@@H](O[C@@H]1O[C@H](CO[C@@H]2O[C@H](CO[C@@H]3O[C@H](CO)[C@@H](O)[C@H](O)[C@H]3O)[C@@H](O)[C@H](O)[C@H]2O)[C@@H](O)[C@H](O)[C@H]1O[C@@H]1O[C@H](CO)[C@@H](O)[C@H](O)[C@H]1O)C(C)(C)O)[C@H]1CC[C@@]2(C)[C@@H]3CC=C4[C@@H](CC[C@H](O[C@@H]5O[C@H](CO[C@@H]6O[C@H](CO)[C@@H](O)[C@H](O)[C@H]6O)[C@@H](O)[C@H](O)[C@H]5O)C4(C)C)[C@]3(C)[C@H](O)C[C@]12C` [Compound 13a, (1S,4R,9beta,11alpha,24R)-1-{[6-O-(beta-D-glucopyranosyl)-beta-D-glucopyranosyl]oxy}-11,25-dihydroxy-9,10,14-trimethyl-4,9-cyclo-9,10-secocholest-5-en-24-yl beta-D-glucopyranosyl-(1→2)-[beta-D-glucopyranosyl-(1→6)-beta-D-glucopyranosyl-(1→6)]-beta-D-glucopyranoside]: the “sensory profile compared with mogroside V” value in test [1] (250 ppm in a water base) is listed as “similar”. In test [1] (Dosage 250 ppm), this molecule gave a Licorice of 4.4, a Lingering of 4.2 and a Sweet of 4.6. Also, in test [2] (setting [3]), the “sweetness relative to sucrose” value was 100-150 times sweeter than sucrose. In test [2] (setting [4]), the taste perceived entry is on record as “moderate sweet taste”.

For the molecule `C[C@H](CC[C@@H](O[C@@H]1O[C@H](CO)[C@@H](O)[C@H](O)[C@H]1O[C@@H]1O[C@H](CO)[C@@H](O)[C@H](O)[C@H]1O)C(C)(C)O)[C@H]1CC[C@@]2(C)[C@@H]3CC=C4[C@@H](CC[C@H](O[C@@H]5O[C@H](CO[C@@H]6O[C@H](CO)[C@@H](O)[C@H](O)[C@H]6O)[C@@H](O)[C@H](O)[C@H]5O)C4(C)C)[C@]3(C)CC[C@]12C` [Compound 15a, (1S,4S,9beta,24R)-1-{[6-O-(beta-D-glucopyranosyl)-beta-D-glucopyranosyl]oxy}-25-hydroxy-9,10,14-trimethyl-4,9-cyclo-9,10-secocholest-5-en-24-yl 2-O-beta-D-glucopyranosyl-beta-D-glucopyranoside], the “sensory profile compared with mogroside V” value in test [1] (500 ppm in a water base) is “similar”. In test [1] (Dosage 500 ppm), this molecule came in with a Licorice of 6.8, a Lingering of 6.3 and a Sweet of 7.0. Further, the “sweetness relative to sucrose” value in test [2] (tasted at 500 ppm in a water base) is 150-300 times sweeter than sucrose. Further, the taste perceived result in test [2] (tasted at a concentration of 500 ppm in a water base) was “strong sweet taste”.

Turning to isomogroside IVe, the “perception of licorice and lingering profile compared with mogroside V” value in test [1] (250 ppm in a water base) is on record as “weaker”.
